{"source": "patent US12295925B2", "about": "“Treatment of neurofibromatosis type 1 (NF1) associated plexiform neurofibromas (PN) in pediatric patients with mirdametinib” (SpringWorks Therapeutics, Inc., priority 2022, dated 2025)", "system": "patients >2 and <25 years with brain cancer", "test": "Phase I/II trial of single agent mirdametinib in children, adolescents and young adults with brain cancer", "format": "in vivo, human", "protocol": "Example 1: Phase I/II Evaluation of Single Agent Mirdametinib, a Brain-Penetrant MEK1/2 Inhibitor, for the Treatment of Children, Adolescents, and Young Adults with Brain Cancer A multi-arm phase I/II trial of mirdametinib is to be conducted in patients>2 and <25 years with brain cancer. Phase I requires participants have no prior exposure to MEK inhibitors and recurrent/progressive disease with biopsy-proven evidence of MAPK pathway activation. Three escalating dose levels (2 mg/m^2/dose BID, 2.5 mg/m^2/dose BID and 3 mg/m^2/dose BID) are planned using a rolling 6 design. The median age enrolled in the study is 10 years old (3-21).", "data": [{"smiles": "O=C(NOC[C@H](O)CO)c1ccc(F)c(F)c1Nc1ccc(I)cc1F", "note": "(single isomer, unassigned) [mirdametinib]", "values": [{"measurement": "dose-limiting toxicities", "setting": "all three dose levels (2, 2.5 and 3 mg/m^2/dose BID), rolling 6 design, patients with brain cancer, median age 10 years", "value": "No dose-limiting toxicities"}, {"measurement": "clinical activity (overall assessment)", "setting": "dosed continuously in patients with brain cancer", "value": "clinically promising"}]}]}
